# Results: US20250243171A1, “QUINAZOLINE COMPOUNDS FOR TREATMENT OF DISEASE” (Arthrosi Therapeutics, Inc., priority 2021, published 2025)
# Columns and labels:
# Test in all cases: EC50 assay: Ba/F3 stable cell proliferation (CCK-8, 72 h)
# Type in all cases: cell-based
# [1] = molecular target: T1, Ba/F3 stable cells (Homo sapiens, UniProt P00533, T790M/L858R, cells depend on it); conditions: Ba/F3-EGFR L858R-T790M cells
# T1 construct: EC50 Ba/F3-EGFR L858R-T790M; other: Ba/F3-EGFR L858R-T790M cells, 72 h, CCK-8
# How it was run: (§1)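 Ba/F3 stable cells were seeded at 4,000 cells/90 μL/well in 96-well plates and held 2 h at 37° C. in 5% CO2, then given 10 μL of serially titrated compound (0.1% DMSO final). After 72 h at 37° C., CCK-8 reagent was added for 4 hours and absorbance read at 450 nm to derive EC50.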
# [2] = molecular target: T2, Ba/F3 stable cells (Homo sapiens, UniProt P00533, DUP767-769, cells depend on it); conditions: Ba/F3-EGFR V769-D770insASV cells
# T2 construct: EC50 Ba/F3-EGFR V769-D770insASV; other: Ba/F3-EGFR V769-D770insASV cells, 72 h, CCK-8
# How it was run: as §1
# [3] = molecular target: T3, Ba/F3 stable cells (Homo sapiens, UniProt P00533, DUP771-773, cells depend on it); conditions: Ba/F3-EGFR H773-V774insNPH cells
# T3 construct: EC50 Ba/F3-EGFR H773-V774insNPH; other: Ba/F3-EGFR H773-V774insNPH cells, 72 h, CCK-8
# How it was run: as §1
# [4] = molecular target: T4, Ba/F3 stable cells (Homo sapiens, UniProt P00533, DUP768-770, cells depend on it); conditions: Ba/F3-EGFR D770-N771insSVD cells
# T4 construct: EC50 Ba/F3-EGFR D770-N771insSVD; other: Ba/F3-EGFR D770-N771insSVD cells, 72 h, CCK-8
# How it was run: as §1
# [5] = molecular target: T5, Ba/F3 stable cells (Homo sapiens, UniProt P04626, DUP772-775, cells depend on it); conditions: Ba/F3-HER2 A775-G776insYVMA cells
# T5 construct: EC50 Ba/F3-HER2 A775-G776insYVMA; other: Ba/F3-HER2 A775-G776insYVMA cells, 72 h, CCK-8
# How it was run: as §1
# [6] = molecular target: T6, Ba/F3 stable cells (Homo sapiens, UniProt P00533, INS763FQEA, cells depend on it); conditions: Ba/F3-EGFR A763-Y764insFQEA cells
# T6 construct: EC50 Ba/F3-EGFR A763-Y764insFQEA; other: Ba/F3-EGFR A763-Y764insFQEA cells, 72 h, CCK-8
# How it was run: as §1
# T2 sequence (P00533 with tags, fused parts or gaps DUP767-769): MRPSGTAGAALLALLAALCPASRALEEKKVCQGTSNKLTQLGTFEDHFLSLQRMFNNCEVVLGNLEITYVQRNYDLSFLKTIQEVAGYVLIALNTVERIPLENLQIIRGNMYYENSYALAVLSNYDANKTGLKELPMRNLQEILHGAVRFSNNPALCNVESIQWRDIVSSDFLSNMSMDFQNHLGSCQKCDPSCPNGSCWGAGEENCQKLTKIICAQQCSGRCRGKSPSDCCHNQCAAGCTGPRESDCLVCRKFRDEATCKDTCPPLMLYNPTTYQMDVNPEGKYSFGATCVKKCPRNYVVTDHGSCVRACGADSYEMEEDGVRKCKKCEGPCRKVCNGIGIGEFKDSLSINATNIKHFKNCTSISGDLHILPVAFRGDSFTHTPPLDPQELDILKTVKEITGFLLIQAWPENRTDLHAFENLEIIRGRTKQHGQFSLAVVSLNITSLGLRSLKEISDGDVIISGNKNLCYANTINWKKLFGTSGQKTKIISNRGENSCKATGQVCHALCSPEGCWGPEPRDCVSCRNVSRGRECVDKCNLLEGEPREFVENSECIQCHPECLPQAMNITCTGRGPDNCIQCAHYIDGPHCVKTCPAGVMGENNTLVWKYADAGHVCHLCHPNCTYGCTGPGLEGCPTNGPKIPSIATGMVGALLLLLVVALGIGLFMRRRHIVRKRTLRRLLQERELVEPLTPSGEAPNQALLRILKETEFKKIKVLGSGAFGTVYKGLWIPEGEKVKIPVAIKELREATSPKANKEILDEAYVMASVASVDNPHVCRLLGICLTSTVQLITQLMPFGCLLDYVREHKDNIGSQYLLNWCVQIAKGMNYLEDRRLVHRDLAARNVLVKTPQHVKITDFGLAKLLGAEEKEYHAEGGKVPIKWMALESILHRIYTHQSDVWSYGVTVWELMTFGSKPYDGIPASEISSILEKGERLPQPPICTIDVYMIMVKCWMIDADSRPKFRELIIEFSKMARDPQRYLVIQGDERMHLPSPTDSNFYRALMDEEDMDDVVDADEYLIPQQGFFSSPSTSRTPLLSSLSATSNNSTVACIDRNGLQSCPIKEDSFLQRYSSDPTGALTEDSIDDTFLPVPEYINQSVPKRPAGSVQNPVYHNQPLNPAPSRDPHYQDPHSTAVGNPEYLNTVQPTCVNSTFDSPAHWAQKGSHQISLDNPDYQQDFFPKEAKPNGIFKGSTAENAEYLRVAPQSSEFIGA
# T3 sequence (P00533 with tags, fused parts or gaps DUP771-773): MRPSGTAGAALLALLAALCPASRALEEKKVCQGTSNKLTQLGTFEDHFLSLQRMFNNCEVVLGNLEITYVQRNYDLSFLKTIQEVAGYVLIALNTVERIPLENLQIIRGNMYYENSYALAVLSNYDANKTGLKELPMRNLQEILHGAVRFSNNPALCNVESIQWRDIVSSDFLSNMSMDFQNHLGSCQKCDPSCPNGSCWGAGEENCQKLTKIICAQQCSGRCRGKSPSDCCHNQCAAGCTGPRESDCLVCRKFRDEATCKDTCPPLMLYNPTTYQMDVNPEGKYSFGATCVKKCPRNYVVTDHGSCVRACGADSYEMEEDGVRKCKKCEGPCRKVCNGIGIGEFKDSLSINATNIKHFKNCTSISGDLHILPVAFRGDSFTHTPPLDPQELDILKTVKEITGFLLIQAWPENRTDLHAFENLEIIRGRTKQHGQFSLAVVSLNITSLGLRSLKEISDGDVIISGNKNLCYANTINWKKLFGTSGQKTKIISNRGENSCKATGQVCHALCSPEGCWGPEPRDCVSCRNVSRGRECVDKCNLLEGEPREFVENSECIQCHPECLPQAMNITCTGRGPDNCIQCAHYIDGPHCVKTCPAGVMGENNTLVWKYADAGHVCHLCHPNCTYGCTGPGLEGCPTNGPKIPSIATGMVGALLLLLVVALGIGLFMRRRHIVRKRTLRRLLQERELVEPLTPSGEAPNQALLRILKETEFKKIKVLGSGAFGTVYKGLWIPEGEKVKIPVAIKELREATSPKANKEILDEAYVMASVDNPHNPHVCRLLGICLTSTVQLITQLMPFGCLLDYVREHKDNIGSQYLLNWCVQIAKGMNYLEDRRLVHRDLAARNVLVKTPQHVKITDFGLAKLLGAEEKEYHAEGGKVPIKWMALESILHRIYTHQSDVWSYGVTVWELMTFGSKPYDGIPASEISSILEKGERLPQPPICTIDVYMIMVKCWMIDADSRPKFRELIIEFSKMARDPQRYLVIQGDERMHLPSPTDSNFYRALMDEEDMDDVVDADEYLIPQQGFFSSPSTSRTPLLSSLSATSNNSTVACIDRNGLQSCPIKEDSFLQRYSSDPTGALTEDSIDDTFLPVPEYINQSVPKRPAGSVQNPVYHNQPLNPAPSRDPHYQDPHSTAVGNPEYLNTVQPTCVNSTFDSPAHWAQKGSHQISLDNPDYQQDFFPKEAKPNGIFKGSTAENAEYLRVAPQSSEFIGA
# T1 sequence (P00533 whole entry T790M/L858R): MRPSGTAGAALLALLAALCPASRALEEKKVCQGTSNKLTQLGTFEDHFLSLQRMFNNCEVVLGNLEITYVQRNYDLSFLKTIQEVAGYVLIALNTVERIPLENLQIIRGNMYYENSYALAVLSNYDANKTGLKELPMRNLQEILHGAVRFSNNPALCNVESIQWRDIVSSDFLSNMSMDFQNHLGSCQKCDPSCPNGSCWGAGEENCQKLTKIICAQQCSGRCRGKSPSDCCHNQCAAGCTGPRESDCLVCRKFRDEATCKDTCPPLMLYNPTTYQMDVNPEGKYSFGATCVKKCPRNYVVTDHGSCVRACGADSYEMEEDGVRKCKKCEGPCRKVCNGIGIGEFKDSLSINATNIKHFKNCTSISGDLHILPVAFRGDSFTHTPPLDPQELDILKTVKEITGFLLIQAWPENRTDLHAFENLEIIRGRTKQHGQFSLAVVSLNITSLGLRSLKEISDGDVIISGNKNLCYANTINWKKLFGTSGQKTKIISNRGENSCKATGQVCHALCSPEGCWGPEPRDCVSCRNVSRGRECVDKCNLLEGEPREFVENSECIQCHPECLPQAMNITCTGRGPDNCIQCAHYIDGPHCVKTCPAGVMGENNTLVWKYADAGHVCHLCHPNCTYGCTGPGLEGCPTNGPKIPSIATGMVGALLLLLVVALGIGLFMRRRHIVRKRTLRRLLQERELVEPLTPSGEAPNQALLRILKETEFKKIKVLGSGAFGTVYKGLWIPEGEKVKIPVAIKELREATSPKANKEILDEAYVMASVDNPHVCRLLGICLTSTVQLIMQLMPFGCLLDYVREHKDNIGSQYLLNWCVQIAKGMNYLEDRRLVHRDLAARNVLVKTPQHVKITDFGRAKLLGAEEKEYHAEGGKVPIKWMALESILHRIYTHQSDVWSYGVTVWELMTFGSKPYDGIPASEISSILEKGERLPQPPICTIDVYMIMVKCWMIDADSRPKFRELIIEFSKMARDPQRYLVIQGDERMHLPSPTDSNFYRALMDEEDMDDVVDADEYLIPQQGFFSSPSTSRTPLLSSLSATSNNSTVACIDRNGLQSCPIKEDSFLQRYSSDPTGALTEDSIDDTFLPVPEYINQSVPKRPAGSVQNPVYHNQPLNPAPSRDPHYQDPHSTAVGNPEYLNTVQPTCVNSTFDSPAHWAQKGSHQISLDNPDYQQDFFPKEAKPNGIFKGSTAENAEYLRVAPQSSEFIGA
# T4 sequence (P00533 with tags, fused parts or gaps DUP768-770): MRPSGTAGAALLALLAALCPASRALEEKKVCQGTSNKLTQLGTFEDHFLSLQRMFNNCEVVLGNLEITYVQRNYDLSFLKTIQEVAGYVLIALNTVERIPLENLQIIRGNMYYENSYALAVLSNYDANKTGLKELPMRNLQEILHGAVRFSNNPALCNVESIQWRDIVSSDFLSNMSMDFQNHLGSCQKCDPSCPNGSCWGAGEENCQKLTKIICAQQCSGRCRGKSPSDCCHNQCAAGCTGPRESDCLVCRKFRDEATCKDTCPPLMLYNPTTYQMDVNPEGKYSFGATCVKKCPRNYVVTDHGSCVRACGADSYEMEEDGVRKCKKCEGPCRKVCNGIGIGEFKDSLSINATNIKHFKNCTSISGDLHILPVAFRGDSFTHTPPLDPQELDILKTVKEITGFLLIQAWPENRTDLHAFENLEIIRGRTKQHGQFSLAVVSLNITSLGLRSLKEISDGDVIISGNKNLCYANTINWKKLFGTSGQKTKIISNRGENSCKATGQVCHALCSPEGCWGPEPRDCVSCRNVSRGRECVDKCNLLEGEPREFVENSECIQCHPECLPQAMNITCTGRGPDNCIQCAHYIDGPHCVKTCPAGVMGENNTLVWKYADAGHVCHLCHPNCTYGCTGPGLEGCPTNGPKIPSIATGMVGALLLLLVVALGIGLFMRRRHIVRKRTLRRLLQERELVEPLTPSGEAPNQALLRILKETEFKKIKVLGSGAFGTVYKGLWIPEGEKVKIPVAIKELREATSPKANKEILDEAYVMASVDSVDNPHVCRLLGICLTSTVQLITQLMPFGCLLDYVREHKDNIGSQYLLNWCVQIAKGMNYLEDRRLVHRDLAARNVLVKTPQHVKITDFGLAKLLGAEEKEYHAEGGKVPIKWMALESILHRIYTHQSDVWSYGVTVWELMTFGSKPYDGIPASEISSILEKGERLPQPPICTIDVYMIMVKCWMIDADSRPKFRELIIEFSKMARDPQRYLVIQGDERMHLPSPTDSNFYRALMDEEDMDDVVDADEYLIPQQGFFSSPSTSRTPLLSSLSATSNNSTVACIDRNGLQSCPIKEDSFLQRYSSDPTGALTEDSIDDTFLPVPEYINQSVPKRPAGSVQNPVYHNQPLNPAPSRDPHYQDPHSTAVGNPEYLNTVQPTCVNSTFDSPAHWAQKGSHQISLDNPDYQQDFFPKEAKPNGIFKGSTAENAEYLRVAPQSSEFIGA
SMILES,EC50 [1],EC50 [2],EC50 [3],EC50 [4],EC50 [5],EC50 [6]
"C=CC(=O)N1CCC(Oc2cc3c(NCc4cc(Cl)cc(Cl)c4)ncnc3cc2OC)CC1 [Compound 117, 1-(4-((4-((3,5-dichlorobenzyl)amino)-7-methoxyquinazolin-6-yl)oxy)piperidin-1-yl)prop-2-en-1-one]",0.2 to 1 µM,> 1 µM,> 1 µM,> 1 µM,> 1 µM,0.2 to 1 µM
"C=CC(=O)N1CCC(Oc2cc3c(NCc4cc(Cl)ccc4F)ncnc3cc2OC)CC1 [Compound 118, 1-(4-((4-((5-chloro-2-fluorobenzyl)amino)-7-methoxyquinazolin-6-yl)oxy)piperidin-1-yl)prop-2-en-1-one]",> 1 µM,> 1 µM,> 1 µM,> 1 µM,0.2 to 1 µM,≤ 0.2 µM
"C=CC(=O)N1CCC(Oc2cc3c(NCc4cc(F)cc(Cl)c4)ncnc3cc2OC)CC1 [Compound 122, 1-(4-((4-((3-chloro-5-fluorobenzyl)amino)-7-methoxyquinazolin-6-yl)oxy)piperidin-1-yl)prop-2-en-1-one]",0.2 to 1 µM,0.2 to 1 µM,0.2 to 1 µM,0.2 to 1 µM,> 1 µM,≤ 0.2 µM
"C=CC(=O)N1CCC(Oc2cc3c(NCc4ccccc4)ncnc3cc2OC)CC1 [Compound 123, 1-(4-((4-(benzylamino)-7-methoxyquinazolin-6-yl)oxy)piperidin-1-yl)prop-2-en-1-one]",0.2 to 1 µM,≤ 0.2 µM,≤ 0.2 µM,0.2 to 1 µM,0.2 to 1 µM,≤ 0.2 µM
"C=CC(=O)N1CCC(Oc2cc3c(NCc4cccc(C#N)c4)ncnc3cc2OC)CC1 [Compound 124, 3-(((6-((1-acryloylpiperidin-4-yl)oxy)-7-methoxyquinazolin-4-yl)amino)methyl)benzonitrile]",> 1 µM,> 1 µM,> 1 µM,> 1 µM,> 1 µM,≤ 0.2 µM

# Other lines, results leading:
EC50 [1],EC50 [2],EC50 [3],EC50 [4],EC50 [5],EC50 [6],SMILES
0.2 to 1 µM,≤ 0.2 µM,≤ 0.2 µM,0.2 to 1 µM,≤ 0.2 µM,≤ 0.2 µM,"C=CC(=O)N1CCC(Oc2cc3c(NCc4cccc(Cl)c4F)ncnc3cc2OC)CC1 [Compound 116, 1-(4-((4-((3-chloro-2-fluorobenzyl)amino)-7-methoxyquinazolin-6-yl)oxy)piperidin-1-yl)prop-2-en-1-one]"
> 1 µM,> 1 µM,> 1 µM,> 1 µM,> 1 µM,≤ 0.2 µM,"C=CC(=O)N1CCC(Oc2cc3c(NCc4cc(Cl)ccc4Cl)ncnc3cc2OC)CC1 [Compound 119, 1-(4-((4-((2,5-dichlorobenzyl)amino)-7-methoxyquinazolin-6-yl)oxy)piperidin-1-yl)prop-2-en-1-one]"
0.2 to 1 µM,≤ 0.2 µM,≤ 0.2 µM,≤ 0.2 µM,0.2 to 1 µM,≤ 0.2 µM,"C=CC(=O)N1CCC(Oc2cc3c(NCc4cccc(Br)c4)ncnc3cc2OC)CC1 [Compound 120, 1-(4-((4-((3-bromobenzyl)amino)-7-methoxyquinazolin-6-yl)oxy)piperidin-1-yl)prop-2-en-1-one]"
0.2 to 1 µM,0.2 to 1 µM,0.2 to 1 µM,0.2 to 1 µM,0.2 to 1 µM,≤ 0.2 µM,"C=CC(=O)N1CCC(Oc2cc3c(NCc4cccc(C)c4)ncnc3cc2OC)CC1 [Compound 121, 1-(4-((7-methoxy-4-((3-methylbenzyl)amino)quinazolin-6-yl)oxy)piperidin-1-yl)prop-2-en-1-one]"
0.2 to 1 µM,0.2 to 1 µM,0.2 to 1 µM,0.2 to 1 µM,0.2 to 1 µM,≤ 0.2 µM,"C=CC(=O)N1CCC(Oc2cc3c(NCc4cccc(I)c4)ncnc3cc2OC)CC1 [Compound 125, 1-(4-((4-((3-iodobenzyl)amino)-7-methoxyquinazolin-6-yl)oxy)piperidin-1-yl)prop-2-en-1-one]"
